pKi: −log10 of the molar value. Where only a bound is given, the exact number is not on record here.

Chain of PKC delta kinase (Q05655 whole entry): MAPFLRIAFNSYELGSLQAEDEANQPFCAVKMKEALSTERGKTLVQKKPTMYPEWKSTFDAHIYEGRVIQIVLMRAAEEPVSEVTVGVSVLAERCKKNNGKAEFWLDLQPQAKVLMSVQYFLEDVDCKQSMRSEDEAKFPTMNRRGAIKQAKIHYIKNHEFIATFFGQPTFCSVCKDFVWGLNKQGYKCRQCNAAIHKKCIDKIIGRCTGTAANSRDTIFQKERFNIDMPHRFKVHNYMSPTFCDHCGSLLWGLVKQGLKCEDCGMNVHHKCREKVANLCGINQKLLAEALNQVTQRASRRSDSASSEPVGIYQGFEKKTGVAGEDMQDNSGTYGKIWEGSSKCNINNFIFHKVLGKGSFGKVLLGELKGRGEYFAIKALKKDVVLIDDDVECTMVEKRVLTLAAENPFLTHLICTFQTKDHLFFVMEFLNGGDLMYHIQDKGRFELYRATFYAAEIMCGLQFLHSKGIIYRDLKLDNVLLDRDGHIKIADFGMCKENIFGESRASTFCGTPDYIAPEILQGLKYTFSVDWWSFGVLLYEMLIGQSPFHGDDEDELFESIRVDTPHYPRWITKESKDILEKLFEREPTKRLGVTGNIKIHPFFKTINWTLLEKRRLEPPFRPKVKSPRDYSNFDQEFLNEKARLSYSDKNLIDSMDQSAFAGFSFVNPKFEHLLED

One assay addresses PKC alpha kinase (Homo sapiens, UniProt P17252). Description: PKC Alpha coupled-enzyme kinase assay. Format: biochemical. To be noted: 4.5 nM PKC alpha, 130 μM ATP, 30° C. As for the experimental part:
An assay buffer solution was prepared which consisted of 100 mM HEPES (pH 7.5), 10 mM MgCl2, 25 mM NaCl, 0.1 mM EDTA, 100 μM CaCl2 and 0.01% Brij. […] To 16 μL of this enzyme buffer, in a 384 well plate, was added 1 μL of VRT stock solution in DMSO. The mixture was allowed to equilibrate for 10 mins at 30° C. The enzyme reaction was initiated by the addition of 16 μL stock ATP solution prepared in assay buffer to a final assay concentration of 130 μM. Initial rate data was determined from the rate of change of absorbance at 340 nm (corresponding to stoichiometric consumption of NADH) using a Molecular Devices Spectramax plate reader (Sunnyvale, Calif.) over 15 mins at 30° C. For each Ki determination 12 data points covering the VRT concentration range of 0-20 μM were obtained in duplicate (DMSO stocks were prepared from an initial 10 mM VRT stock with subsequent 1:2 serial dilutions). Ki values were calculated from initial rate data by non-linear regression using the Prism software package (Prism 4.0a, Graphpad Software, San Diego, Calif.).
`Nc1ncccc1C(=O)c1cccc(N2CCCN(C(=O)c3sccc3Cl)CC2)n1` [compound 92] had a pKi of 5.55 to 6.30.
The same measure, in the same setting: the figure for `C#Cc1cnc(N)c(C(=O)c2cccc(N3CCCNCC3)n2)c1` [compound 108] is greater than 7.30.
`Cc1sc(N2CCCNCC2)nc1C(=O)c1cccnc1N` [compound 109]: the pKi is 5.55 to 6.30.
In turn, `Nc1ncccc1C(=O)c1cncc(N2CCCNCC2)n1` [compound 157] gave a pKi of 5.55 to 6.30.
On the same count and under the same terms, the figure for `Nc1ncccc1C(=O)c1cncc(N2CCC(N)CC2)n1` [compound 161] is 5.55 to 6.30; for `Nc1ncc(CCc2ccccc2)cc1C(=O)c1cccc(N2CCCNCC2)n1` [compound 187] it is greater than 7.30; for `Nc1ncc(Cc2ccccc2)cc1C(=O)c1cccc(N2CCCNCC2)n1` [compound 188] it is greater than 7.30.
The same measure, in the same setting: the figure for `C=Cc1cnc(N)c(C(=O)c2cccc(N3CCNCC3)n2)c1` [compound 202] is greater than 7.30; for `Cc1ccc(N2CCNCC2)nc1C(=O)c1cccnc1N` [compound 230] it is 5.55 to 6.30; for `Nc1ncc(Br)cc1C(=O)c1cccc(N2CCNC(c3ccccc3)C2)n1` (stereo not drawn) [compound 240] it is greater than 7.30.
Same read-out and setting: the figure for `C=Cc1cnc(N)c(C(=O)c2cccc(N3CCNC(c4ccccc4)C3)n2)c1` (stereo not drawn) [compound 241] is greater than 7.30.
`CC[C@@H]1CNCCN1c1cccc(C(=O)c2cccnc2N)n1` [compound 243] gave a pKi of 5.55 to 6.30.
Still for that read-out and setting: the figure for `CC(C)C[C@H]1CN(c2ccc(Cl)c(C(=O)c3cccnc3N)n2)CCN1` [compound 323] is greater than 7.30; for `C=Cc1cnc(N)c(C(=O)c2nc(N3CCNCC3)ccc2C(F)(F)F)c1` [compound 327] it is greater than 7.30; for `C=Cc1cnc(N)c(C(=O)c2nc(N3CCNCC3)ccc2Cl)c1` [compound 330] it is greater than 7.30.
Same read-out and setting: the figure for `CC(C)C[C@H]1CN(c2ccc(C3CC3)c(C(=O)c3cccnc3N)n2)CCN1` [compound 352] is 5.55 to 6.30; for `CCCc1ccc(N2CCN[C@@H](CC(C)C)C2)nc1C(=O)c1cccnc1N` [compound 385] it is 5.55 to 6.30.
`Nc1ncccc1C(=O)c1nc(NC[C@@H](N)c2ccccc2)ccc1C(F)(F)F` [compound 388]: the pKi was greater than 7.30.
Still for that read-out and setting: the figure for `Nc1ncccc1C(=O)c1nc(OCC(N)c2ccccc2)ccc1C(F)(F)F` (stereo not drawn) [compound 415] is greater than 7.30; for `CC(C)C[C@H]1CN(c2ccc(Cc3ccccc3)c(C(=O)c3cccnc3N)n2)CCN1` [compound 418] it is 5.55 to 6.30.

A further assay has as its target PKC delta kinase (Homo sapiens, UniProt Q05655). Description: PKC Delta coupled-enzyme kinase assay. Format: biochemical. The following applies: 46 nM PKC delta, 150 μM ATP, 30° C.; read-out: Ki PKC delta. The procedure: An assay buffer solution was prepared which consisted of 100 mM HEPES (pH 7.5), 10 mM MgCl2, 25 mM NaCl, 0.1 mM EDTA and 0.01% Brij. […] To 16 μL of this enzyme buffer, in a 384 well plate, was added 1 μL of VRT stock solution in DMSO. The mixture was allowed to equilibrate for 10 mins at 30° C. […] Ki values were calculated from initial rate data by non-linear regression using the Prism software package (Prism 4.0a, Graphpad Software, San Diego, Calif.).
In the case of `Nc1ncccc1C(=O)c1cccc(N2CCCN(C(=O)c3sccc3Cl)CC2)n1` [compound 92], the pKi is 5.55 to 6.30.
On to `Cc1sc(N2CCCNCC2)nc1C(=O)c1cccnc1N` [compound 109], for which the pKi is 5.55 to 6.30.
As for `Nc1ncccc1C(=O)c1cncc(N2CCCNCC2)n1` [compound 157], the pKi was 6.30 to 7.30.
On the same count and under the same terms, the figure for `Nc1ncccc1C(=O)c1cncc(N2CCC(N)CC2)n1` [compound 161] is 5.55 to 6.30; for `Nc1ncc(CCc2ccccc2)cc1C(=O)c1cccc(N2CCCNCC2)n1` [compound 187] it is 6.30 to 7.30; for `Nc1ncc(Cc2ccccc2)cc1C(=O)c1cccc(N2CCCNCC2)n1` [compound 188] it is 6.30 to 7.30.
On the same count and under the same terms, the figure for `Cc1ccc(N2CCNCC2)nc1C(=O)c1cccnc1N` [compound 230] is 5.55 to 6.30.
Consider `Nc1ncc(Br)cc1C(=O)c1cccc(N2CCNC(c3ccccc3)C2)n1` (stereo not drawn) [compound 240], for which the pKi was 6.30 to 7.30.
On the same count and under the same terms, the figure for `C=Cc1cnc(N)c(C(=O)c2cccc(N3CCNC(c4ccccc4)C3)n2)c1` (stereo not drawn) [compound 241] is 6.30 to 7.30; for `CC[C@@H]1CNCCN1c1cccc(C(=O)c2cccnc2N)n1` [compound 243] it is 6.30 to 7.30; for `Nc1ncccc1C(=O)c1cccc(N2CCNC(c3ccccc3Cl)C2)n1` (stereo not drawn) [compound 258] it is 6.30 to 7.30.
Turning to `Nc1ncc(-c2cccc(O)c2)cc1C(=O)c1cccc(N2CCNC(c3ccccc3)C2)n1` (stereo not drawn) [compound 260], the pKi was 6.30 to 7.30.
The same measure, in the same setting: the figure for `Nc1ncc(-c2ccccc2)cc1C(=O)c1cccc(N2CCNC(c3ccccc3)C2)n1` (stereo not drawn) [compound 262] is 5.55 to 6.30.
`Nc1ncc(-c2cccs2)cc1C(=O)c1cccc(N2CCNC(c3ccccc3)C2)n1` (stereo not drawn) [compound 263]: the pKi was 6.30 to 7.30.
On the same count and under the same terms, the figure for `Nc1ncc(-c2ccsc2)cc1C(=O)c1cccc(N2CCNC(c3ccccc3)C2)n1` (stereo not drawn) [compound 264] is 5.55 to 6.30; for `Nc1ncc(-c2cc3ccccc3s2)cc1C(=O)c1cccc(N2CCNC(c3ccccc3)C2)n1` (stereo not drawn) [compound 265] it is 5.55 to 6.30; for `Nc1ncc(-c2csc3ccccc23)cc1C(=O)c1cccc(N2CCNC(c3ccccc3)C2)n1` (stereo not drawn) [compound 266] it is 5.55 to 6.30.
On the same count and under the same terms, the figure for `Nc1ncc(-c2c[nH]c3ccccc23)cc1C(=O)c1cccc(N2CCNC(c3ccccc3)C2)n1` (stereo not drawn) [compound 268] is 6.30 to 7.30.
On to `N#Cc1ccccc1-c1cnc(N)c(C(=O)c2cccc(N3CCNC(c4ccccc4)C3)n2)c1` (stereo not drawn) [compound 269], for which the pKi was 6.30 to 7.30.
Regarding `N#Cc1cccc(-c2cnc(N)c(C(=O)c3cccc(N4CCNC(c5ccccc5)C4)n3)c2)c1` (stereo not drawn) [compound 270], the pKi is 6.30 to 7.30.
Still for that read-out and setting: the figure for `N#Cc1ccc(-c2cnc(N)c(C(=O)c3cccc(N4CCNC(c5ccccc5)C4)n3)c2)cc1` (stereo not drawn) [compound 271] is 6.30 to 7.30; for `N#CC1(c2cccc(C(=O)c3cccnc3N)n2)CCNCC1` [compound 280] it is 6.30 to 7.30.
Same read-out and setting: the figure for `Nc1ncc(-c2ccc(CO)cc2)cc1C(=O)c1cccc(N2CCNC(c3ccccc3)C2)n1` (stereo not drawn) [compound 282] is 6.30 to 7.30; for `Nc1ncc(-c2cccc(CO)c2)cc1C(=O)c1cccc(N2CCNC(c3ccccc3)C2)n1` (stereo not drawn) [compound 283] it is 6.30 to 7.30; for `COc1ccccc1-c1cnc(N)c(C(=O)c2cccc(N3CCNC(c4ccccc4)C3)n2)c1` (stereo not drawn) [compound 284] it is 6.30 to 7.30.
As for `COc1cccc(-c2cnc(N)c(C(=O)c3cccc(N4CCNC(c5ccccc5)C4)n3)c2)c1` (stereo not drawn) [compound 286], the pKi is 6.30 to 7.30.
The same measure, in the same setting: the figure for `Nc1ncc(-c2ccncc2)cc1C(=O)c1cccc(N2CCNC(c3ccccc3)C2)n1` (stereo not drawn) [compound 288] is 5.55 to 6.30; for `Nc1ncc(-c2cc[nH]c2)cc1C(=O)c1cccc(N2CCNC(c3ccccc3)C2)n1` (stereo not drawn) [compound 289] it is 6.30 to 7.30.
On the same count and under the same terms, the figure for `Nc1ncc(/C=C/c2ccccc2)cc1C(=O)c1cccc(N2CCNC(c3ccccc3)C2)n1` (stereo not drawn) [compound 290] is 6.30 to 7.30; for `CN(C)c1cccc(-c2cccc(C(=O)c3cccnc3N)n2)c1` [compound 293] it is less than 5.55; for `Nc1ncccc1C(=O)c1cccc(-c2c[nH]c3ccccc23)n1` [compound 294] it is less than 5.55.
The same measure, in the same setting: the figure for `Nc1ncccc1C(=O)c1cccc(N2CCNC(c3ccc(F)cc3)C2)n1` (stereo not drawn) [compound 295] is 6.30 to 7.30.
With `COc1ccccc1C1CN(c2cccc(C(=O)c3cccnc3N)n2)CCN1` (stereo not drawn) [compound 296], the pKi is 6.30 to 7.30.
Regarding `N#Cc1cnc(N)c(C(=O)c2cccc(N3CCCNCC3)n2)c1` [compound 302], the pKi was 5.55 to 6.30.
Still for that read-out and setting: the figure for `CC1(N)CCN(c2cccc(C(=O)c3cccnc3N)n2)CC1` [compound 305] is 6.30 to 7.30; for `COc1cccc(C2CN(c3cccc(C(=O)c4cccnc4N)n3)CCN2)c1` (stereo not drawn) [compound 309] it is 5.55 to 6.30; for `Nc1ncccc1C(=O)c1cccc(N2CCNC(c3ccc(O)cc3)C2)n1` (stereo not drawn) [compound 312] it is 6.30 to 7.30.
Same read-out and setting: the figure for `Nc1ncccc1C(=O)c1cccc(N2CCNC(c3ccc(Cl)c(Cl)c3)C2)n1` (stereo not drawn) [compound 313] is 6.30 to 7.30; for `Nc1ncccc1C(=O)c1cccc(N2CCNC(c3cccc(C(F)(F)F)c3)C2)n1` (stereo not drawn) [compound 314] it is 6.30 to 7.30; for `Nc1ncccc1C(=O)c1nc(N2CCNCC2)ccc1Cl` [compound 315] it is 6.30 to 7.30.
As for `Nc1ncccc1C(=O)c1nc(N2CCNCC2)ccc1C(F)(F)F` [compound 316], the pKi is 6.30 to 7.30.
Still for that read-out and setting: the figure for `Nc1ncccc1C(=O)c1nc(N2CCNC(c3ccccc3)C2)ccc1C(F)(F)F` (stereo not drawn) [compound 317] is 6.30 to 7.30; for `Nc1ncccc1C(=O)c1nc(N2CCCNCC2)ccc1C(F)(F)F` [compound 318] it is 6.30 to 7.30.
The same measure, in the same setting: the figure for `Nc1ncccc1C(=O)c1nc(N2CCNC(c3ccccc3)C2)ccc1Cl` (stereo not drawn) [compound 321] is 6.30 to 7.30; for `Nc1ncccc1C(=O)c1nc(N2CCC(N)CC2)ccc1Cl` [compound 322] it is 6.30 to 7.30.
The same measure, in the same setting: the figure for `Nc1ncccc1C(=O)c1nc(N2CCCNCC2)ccc1Cl` [compound 324] is 6.30 to 7.30.
For the compound `Nc1ncc(Br)cc1C(=O)c1nc(N2CCNCC2)ccc1Cl` [compound 329], the pKi was 6.30 to 7.30.
On to `Nc1ncc(Br)cc1C(=O)c1nc(N2CCNC(c3ccccc3)C2)ccc1Cl` (stereo not drawn) [compound 331], for which the pKi is 6.30 to 7.30.
As to `Cc1cccc(C2CN(c3cccc(C(=O)c4cccnc4N)n3)CCN2)c1` (stereo not drawn) [compound 335], the pKi is 6.30 to 7.30.
Still for that read-out and setting: the figure for `CC(C)C[C@H]1CN(c2ccc(OC(F)F)c(C(=O)c3cccnc3N)n2)CCN1` [compound 356] is 6.30 to 7.30; for `CC(C)C[C@H](N)CNc1ccc(C(F)(F)F)c(C(=O)c2cccnc2N)n1` [compound 396] it is 6.30 to 7.30; for `COc1cccc(C2CN(c3ccc(C(F)(F)F)c(C(=O)c4cccnc4N)n3)CCN2)c1` (stereo not drawn) [compound 397] it is 6.30 to 7.30.
Still for that read-out and setting: the figure for `Nc1ncccc1C(=O)c1nc(N2CCNC(c3ccccc3)C2)ccc1C(F)F` (stereo not drawn) [compound 404] is 6.30 to 7.30; for `CC(C)C[C@H](N)COc1ccc(C(F)(F)F)c(C(=O)c2cccnc2N)n1` [compound 406] it is 6.30 to 7.30.
As for `CC#Cc1ccc(N2CCNCC2)nc1C(=O)c1cccnc1N` [compound 412], the pKi is 6.30 to 7.30.

For the origin of these results see patent publication US20110077237A1, “KINASE INHIBITORS” (VERTEX PHARMACEUTICALS INCORPORATED, priority 2007, published 2011).
